# In patent US7001897B2, “1-methylcarbapenem derivatives” (Sankyo Company, Limited, priority 2000, dated 2006):
# Counter-ions that a name gives are not always drawn. Like-named read-outs stand apart in the source and are kept apart here.
# How the values were obtained:
# Streptococcus pneumoniae = experiment: In vitro antibacterial activity, agar plate dilution method; format: cell-based; details: read-out: Minimum Concentration to Inhibit Growth of the Employed Bacteria B
# Protocol: (§1) To assess the antibacterial activities of the compounds, the minimum concentrations (μg/ml) of the compounds to inhibit growth of various pathogenic bacteria were determined by agar plate dilution method. In this Table, the employed bacteria A, B, and C were as follow: • A: Staphylococcus aureus • B: Streptococcus pneumoniae • C: Haemophilis influenzae strain 9787 (a strain producing β-lactamase)
# Staphylococcus aureus = experiment: as above; format: cell-based; details: read-out: Minimum Concentration to Inhibit Growth of the Employed Bacteria A
# Protocol: as §1
# [1] = test system: Haemophilis influenzae strain 9787 (a strain producing β-lactamase); experiment: as above; format: cell-based; details: read-out: Minimum Concentration to Inhibit Growth of the Employed Bacteria C
# Protocol: as §1
# [2] = Pharmacokinetics, plasma concentration by bioassay after subcutaneous injection; format: in vivo; details: mouse, sc, mice (ddY, male), 20 mg/kg subcutaneous; for AUC: read-out: AUCall (area under the concentration-time curve in plasma); for Cmax: read-out: Cmax (maximal plasma concentration); for half-life: read-out: T1/2 (half-life in plasma concentration) (converted)
# Protocol: The compounds of the present invention compound (20 mg/kg) was subcutaneously injected to mice (n=3, ddY, male, purchased from SLC Japan). The plasma concentration of the compound was determined by a bioassay method at 5, 15, and 30 min, and 1, 1.5, and 2 hr after administration. In the Table, Cmax, T1/2, and AUCall indicate the maximal plasma concentration, half-life in plasma concentration, and area under the concentration-time curve in plasma of the compound, respectively.
# [3] = B: Streptococcus pneumoniae, agar plate dilution
# [4] = A: Staphylococcus aureus, agar plate dilution
# [5] = C: Haemophilis influenzae strain 9787 (β-lactamase producing), agar plate dilution
SMILES,MIC (Streptococcus pneumoniae; [3]) [µg/mL],MIC (Staphylococcus aureus; [4]) [µg/mL],"MIC [1, 5] [µg/mL]",other results
"C[C@@H](O)[C@H]1C(=O)N2C(C(=O)O)=C(SC3CN(c4nc(CNC(=O)c5cccs5)cs4)C3)[C@H](C)[C@H]12 [Example 71, (1R,5S,6S)-2-(1-{4-[(Thiophene-2-carbonylamino)methyl]-1,3-thiazol-2-yl}azetidin-3-yl)thio-6-[(R)-1-hydroxyethyl]-1-methylcarbapen-2-em-3-carboxylic acid sodium salt]",≤ 0.012,≤ 0.012,0.39,
"C[C@@H](O)[C@H]1C(=O)N2C(C(=O)[O-])=C(SC3CN(c4nc(C(=O)N5CCOCC5)cs4)C3)[C@H](C)[C@H]12.[Na+] [Example 11, (1R,5S,6S)-2-[1-(4-Morpholinocarbonyl-1,3-thiazol-2-yl)azetidin-3-yl]thio-6-[(R)-1-hydroxyethyl]-1-methylcarbapen-2-em-3-carboxylic acid sodium salt]",,,,AUC [2]: 40400 ng·h/mL; Cmax [2]: 56.6 µg/mL; half-life [2]: 19.8 min
"C[C@@H](O)[C@H]1C(=O)N2C(C(=O)O)=C(SC3CN(c4nc(CNC(=O)c5ccco5)cs4)C3)[C@H](C)[C@H]12 [Example 72, (1R,5S,6S)-2-(1-{4-[(furan-2-carbonylamino)methyl]-1,3-thiazol-2-yl}azetidin-3-yl)thio-6-[(R)-1-hydroxyethyl]-1-methylcarbapen-2-em-3-carboxylic acid sodium salt]",0.025,≤ 0.012,0.2,
"C[C@@H](O)[C@H]1C(=O)N2C(C(=O)[O-])=C(S[C@@H]3CCN(c4nc(C(N)=O)cs4)C3)[C@H](C)[C@H]12.[Na+] [Example 19, (1R,5S,6S)-2-[(3R)-1-(4-Carbamoyl-1,3-thiazol-2-yl)pyrrolidin-3-yl]thio-6-[(R)-1-hydroxyethyl]-1-methylcarbapen-2-em-3-carboxylic acid sodium salt]",0.2,0.05,0.1,
"C[C@@H](O)[C@H]1C(=O)N2C(C(=O)[O-])=C(SC3CN(c4nc(C(=O)N5CCC5)cs4)C3)[C@H](C)[C@H]12.[Na+] [Example 24, (1R,5S,6S)-2-[1-(4-Azetidinocarbonyl-1,3-thiazol-2-yl)azetidin-3-yl]thio-6-[(R)-1-hydroxyethyl]-1-methylcarbapen-2-em-3-carboxylic acid sodium salt]",0.025,≤ 0.012,0.05,
"CNC(=O)c1csc(N2CC(SC3=C(C(=O)[O-])N4C(=O)[C@H]([C@@H](C)O)[C@H]4[C@H]3C)C2)n1.[Na+] [Example 5, (1R,5S,6S)-2-[1-(4-N-Methylcarbamoyl-1,3-thiazol-2-yl)azetidin-3-yl]thio-6-[(R)-1-hydroxyethyl]-1-methylcarbapen-2-em-3-carboxylic acid sodium salt]",0.2,0.05,0.2,
"C[C@@H](O)[C@H]1C(=O)N2C(C(=O)O)=C(SC3CN(c4nc(C(=O)N[C@@H]5CCNC5)co4)C3)[C@H](C)[C@H]12 [Example 81, (1R,5S,6S)-2-{1-[4-((3R)-pyrrolidin-3-ylcarbamoyl)-1,3-oxazol-2-yl]azetidin-3-yl}thio-6-[(R)-1-hydroxyethyl]-1-methylcarbapen-2-em-3-carboxylic acid]",0.2,≤ 0.012,0.39,
"C[C@@H](O)[C@H]1C(=O)N2C(C(=O)[O-])=C(SC3CN(c4nc(C(=O)N5CCSCC5)cs4)C3)[C@H](C)[C@H]12.[Na+] [Example 25, (1R,5S,6S)-2-[1-(4-Thiomorpholinocarbonyl-1,3-thiazol-2-yl)azetidin-3-yl]thio-6-[(R)-1-hydroxyethyl]-1-methylcarbapen-2-em-3-carboxylic acid sodium salt]",0.1,0.025,0.39,
"C[C@@H](O)[C@H]1C(=O)N2C(C(=O)[O-])=C(SC3CN(c4nc(C(N)=O)cs4)C3)[C@H](C)[C@H]12.[Na+] [Example 3, (1R,5S,6S)-2-[1-(4-Carbamoyl-1,3-thiazol-2-yl)azetidin-3-yl]thio-6-[(R)-1-hydroxyethyl]-1-methylcarbapen-2-em-3-carboxylic acid sodium salt]",0.2,0.05,0.1,AUC [2]: 83900 ng·h/mL; Cmax [2]: 127 µg/mL; half-life [2]: 15 min
"C[C@@H](O)[C@H]1C(=O)N2C(C(=O)[O-])=C(SC3CN(c4nc(C#N)cs4)C3)[C@H](C)[C@H]12.[Na+] [Example 4, (1R,5S,6S)-2-[1-(4-Cyano-1,3-thiazol-2-yl)azetidin-3-yl]thio-6-[(R)-1-hydroxyethyl]-1-methylcarbapen-2-em-3-carboxylic acid sodium salt]",,,,AUC ([2]; in vivo): 165000 ng·h/mL; Cmax ([2]; in vivo): 157 µg/mL; half-life ([2]; in vivo): 61.2 min; MIC (Streptococcus pneumoniae; Streptococcus pneumoniae): 0.2 µg/mL; MIC (Staphylococcus aureus; Staphylococcus aureus): 0.05 µg/mL; MIC [1]: 0.2 µg/mL

# Continued, in another order:
MIC (Streptococcus pneumoniae; [3]) [µg/mL],MIC (Staphylococcus aureus; [4]) [µg/mL],"MIC [1, 5] [µg/mL]",SMILES,other results
0.2,0.025,0.39,"C[C@@H](O)[C@H]1C(=O)N2C(C(=O)O)=C(SC3CN(c4nc(C(=O)N[C@H]5CCNC5)co4)C3)[C@H](C)[C@H]12 [Example 80, (1R,5S,6S)-2-{1-[4-((3S)-pyrrolidin-3-ylcarbamoyl)-1,3-oxazol-2-yl]azetidin-3-yl}thio-6-[(R)-1-hydroxyethyl]-1-methylcarbapen-2-em-3-carboxylic acid]",
0.2,0.05,0.2,"C[C@@H](O)[C@H]1C(=O)N2C(C(=O)[O-])=C(SC3CN(c4nc(C(=O)N(C)C)cs4)C3)[C@H](C)[C@H]12.[Na+] [Example 6, (1R,5S,6S)-2-[1-(4-N,N-Dimethylcarbamoyl-1,3-thiazol-2-yl)azetidin-3-yl]thio-6-[(R)-1-hydroxyethyl]-1-methylcarbapen-2-em-3-carboxylic acid sodium salt]",
0.2,0.05,0.2,"C[C@@H](O)[C@H]1C(=O)N2C(C(=O)O)=C(SC3CN(c4nc(C(=O)NC5CCNCC5)cs4)C3)[C@H](C)[C@H]12 [Example 56, (1R,5S,6S)-2-{1-[4-(piperidin-4-ylcarbamoyl)-1,3-thiazol-2-yl]azetidin-3-yl}thio-6-[(R)-1-hydroxyethyl]-1-methylcarbapen-2-em-3-carboxylic acid]",
0.2,0.05,0.1,"C[C@@H](O)[C@H]1C(=O)N2C(C(=O)[O-])=C(SC3CN(c4nc(C(N)=O)co4)C3)[C@H](C)[C@H]12.[Na+] [Example 22, (1R,5S,6S)-2-[1-(4-Carbamoyl-1,3-oxazol-2-yl)azetidin-3-yl]thio-6-[(R)-1-hydroxyethyl]-1-methylcarbapen-2-em-3-carboxylic acid sodium salt]",
≤ 0.012,≤ 0.012,0.78,"C[C@@H](O)[C@H]1C(=O)N2C(C(=O)O)=C(SC3CN(c4nc(CNC(=O)c5ccccc5)cs4)C3)[C@H](C)[C@H]12 [Example 69, (1R,5S,6S)-2-{1-[4-(benzoylaminomethyl)-1,3-thiazol-2-yl]azetidin-3-yl}thio-6-[(R)-1-hydroxyethyl]-1-methylcarbapen-2-em-3-carboxylic acid sodium salt]",
